Measurements: patent publication US20120028921A1, “METHODS AND COMPOSITIONS USING OXIDIZED PHOSPHOLIPIDS” (The Johns Hopkins University, priority 2004, published 2012)
Entries after “also recorded” stand apart in the source; their conditions may differ.

Tests used:
[1] = system: human pulmonary endothelial cells (HPAEC); experiment: Transendothelial electrical resistance (TER), ECIS system; type: cell-based; settings: for effect of pretreatment on OxPAPC-induced TER increase: BHT 5 μM 10 min preincubated with OxPAPC, toxin B 100 ng/ml, Y27632 5 μM, 1 hr; for effect on transendothelial electrical resistance (TER): agent alone, phospholipids up to 20 μg/ml; for co-elution with TER-increasing activity in HPLC-MS of fraction 2: reversed phase HPLC fractions tested on TER; for effect of synthetic fragmented phospholipids on TER: prepared by chemical synthesis
Description: Human pulmonary endothelial cells (HPAEC) were cultured and transfected with cDNAs as described previously (Birukov et al., 2002). Lipid oxidation and analysis of oxidation products by positive ion electrospray mass spectrometry (ESI-MS) was performed as described previously (Watson et al., 1997, Leitinger et al. 1999 and, Bochov et al. 2002). Measurements of transendothelial electrical resistance were performed using electrical cell substrate impedance-sensing (ECIS) system as described elsewhere (Garcia et al., 2001 and Birukova et al., 2004). Transient transfections and siRNA-based protein depletion of small GTPases were performed as described elsewhere (Birukov et al. 2002, Birukova et al., 2004 and Birukova et al., 2004a). Rac, Cdc42 and Rho activation assays were performed using assay kits from Upstate Biotechnology (Lake Placid, N.Y.) (Garcia et al., 2001 and Birukova et al., 2004). Subcellular protein fractionation, western blot analyses and densitometric analyses were performed from at least 3 experiments as described (Birukova et al., 2004). Immunofluorescent staining of HPAEC was performed as previously described (Birukov et al., 2002, Birukova et al., 2004). ANOVAs and a post hoc Student-Newman-Keuls test were used to compare the means of two or more different treatment groups. Results were expressed as the mean±SE. Differences between two groups were considered statistically significant with a value of P<0.05.

Erk-1,2 = Erk-1,2 MAP kinase cascade activation, phospho-specific immunoblotting; type: cell-based, human; settings: for effect on OxPAPC-induced Erk-1,2 cascade activation/phosphorylation: UO-126 5 μM, genistein 100 μM, PKC peptide inhibitor 20 μM, BHT preincubated with OxPAPC
Description: (§1) Western immunoblotting. Protein extracts were separated by SDS-PAGE, transferred to polyvinylidene difluoride (PVDF) membranes (30 V for 18 h or 90 V for 2 h), and the membranes were incubated with specific antibodies of interest. Equal protein loadings were verified by reprobing membranes with anti-Erk, anti-Fax, or anti-paxillin antibodies. Immunoreactive proteins were detected with the enhanced chemiluminescent detection system (ECL) according to the manufacturer's directions (New England BioLabs, Beverly, Mass.). The relative intensities of the protein bands were quantified by scanning densitometry using Image Quant 5.2 (Molecular Dynamics, Piscataway, N.J.) software.
(§2) Activation of MAP kinase pathways and characterization of tyrosine phosphorylation. Activation of MAP kinase cascade was by monitored by western immunoblotting techniques using phosphospecific antibodies, which are described in Materials section and detect activated form of protein kinases of the MAP kinase cascade. Analysis of the total protein tyrosine phosphorylation was performed by immunoblotting with phosphotyrosine antibody.

JNK = JNK MAP kinase phosphorylation, immunoblotting; type: cell-based, human
Description: as §1, §2

[2] = system: protein tyrosine phosphorylation; experiment: Total protein tyrosine phosphorylation, phosphotyrosine immunoblot; type: cell-based, human; settings: for effect on OxPAPC-induced protein tyrosine phosphorylation: genistein 100 μM, BHT preincubated with OxPAPC
Description: as §1, §2

p38 = p38 MAP kinase phosphorylation, immunoblotting; type: cell-based, human; settings: 20 μg/ml
Description: as §1, §2

PKC = PKC activation: phospho-PKC substrate immunoblot and in vitro kinase assay of lysates; type: cell-based, human
Description: (§3) Analysis of PKC and PKA activities. After stimulation with OxPAPC (20 μg/ml, 15 min), HPAEC were lysed, cell lysates were clarified by centrifugation (14000 g, 5 min, +4 C.°), and PKA and PKC activities were measured using in vitro kinase assay kits obtained from Promega Corp. (Madison, Wis.) according to manufacturer protocol. Additionally, OxPAPC-induced PKC and PKA activation in HPAEC cultures was determined by immunoblotting of whole cell lysates with phospho-PKC substrate- and phospho-PKA substrate-specific antibodies that recognize PKA- or PKC-phosphorylated sites in the EC endogenous proteins.

PKA = PKA activation: phospho-PKA substrate immunoblot and in vitro kinase assay of lysates; type: cell-based, human; settings: phospho-PKA substrate immunoblot
Description: as §3

FAK = FAK Tyr576 phosphorylation, immunoblot; type: cell-based, human; settings: PP-2 5 μM pretreatment
Description: as §1

paxillin = experiment: Paxillin Tyr118 phosphorylation, immunoblot; type: cell-based, human; settings: PP-2 5 μM pretreatment
Description: as §1

[3] = system: human pulmonary endothelial cells (HPAEC); settings: literature (Goggel et al. 2004); cited from earlier work
[4] = HPAEC monolayers, thrombin 50 nM

For Cc1cc(C(C)(C)C)c(O)c(C(C)(C)C)c1 [BHT, butylated hydroxytoluene], the “effect of pretreatment on OxPAPC-induced TER increase” value [1] was “did not affect”, the “effect on OxPAPC-induced Erk-1,2 cascade activation/phosphorylation” value (Erk-1,2) was “same levels of Erk-1,2 activation” and the “effect of preincubation on OxPAPC-induced JNK activation” value (JNK; OxPAPC preincubated with BHT) was “same levels of JNK activation”. The “effect on OxPAPC-induced protein tyrosine phosphorylation” value [2] was “did not affect”.
For CCCCCCCCCCCCCC(=O)OC[C@H](COP(=O)([O-])OCC[N+](C)(C)C)OC(=O)CCCCCCCCCCCCC [DMPC, dimyristoyl phosphatidyl choline], the “effect on transendothelial electrical resistance (TER)” value (from here on “effect … (TER)”) [1, 4] was “did not exhibit significant effects”.
For CCCCC/C=C\C/C=C\C/C=C\C/C=C\CCCC(=O)O[C@H](COC(=O)CCCCCCCCCCCCCCC)COP(=O)([O-])OCC[N+](C)(C)C [PAPC, 1-palmitoyl-2-arachidomoyl-sn-glycero-3-phosphorylcholine], the “effect … (TER)” value [1, 4] was “did not exhibit significant effects”, the “Erk-1,2 activation” value (Erk-1,2; 20 μg/ml) was “had no effect” and the “phosphorylation / activation of p38” value (p38) was “without effect”. For the same compound, the “phosphorylation / activation of JNK” value (JNK; 20 μg/ml) was “without effect”, the protein tyrosine phosphorylation ([2]; 20 μg/ml) was “without effect” and the “PKC-mediated phosphorylation of endogenous substrates” value (PKC; phospho-PKC substrate immunoblot) was “did not significantly increase”. For the same compound, the “PKA-mediated phosphorylation of endogenous substrates / PKA activation” value (PKA) was “did not induce PKA activation”.
For CCCCC/C=C\CC1C=CC(=O)/C1=C/C1OC1CCCC(=O)O[C@H](COC(=O)CCCCCCCCCCCCCCC)COP(=O)([O-])OCC[N+](C)(C)C (stereo partly drawn) [PECPC, 1-palmitoyl-2-(epoxycyclopentenone)-sn-glycero-3-phosphorylcholine], the “co-elution with TER-increasing activity in HPLC-MS of fraction 2” value [1] was “co-eluted with the fraction exhibiting major barrier-protective activity; also recorded: co-eluted with TER increasing activity”.
In the case of CCCCC/C=C\CC1/C(=C\C2OC2CCCC(=O)O[C@H](COC(=O)CCCCCCCCCCCCCCC)COP(=O)([O-])OCC[N+](C)(C)C)C(=O)CC1O (stereo partly drawn) [PEIPC, 1-palmitoyl-2-(epoxyisoprostane E2)-sn-glycero-3-phosphocholine], the “co-elution with TER-increasing activity in HPLC-MS of fraction 2” value [1] is reported as “co-eluted with TER increasing activity”.
For CCCCCCCCCCCCCCCC(=O)OC[C@H](COP(=O)([O-])OCC[N+](C)(C)C)OC(=O)CCCC(=O)O [PGPC], the “effect of synthetic fragmented phospholipids on TER” value (“effect … on TER” for short) [1] was “significantly and concentration-dependently decreased TER”.
In the case of CCCCC/C=C\C/C=C\CCCCCCCC(=O)OC(COC(=O)CCCCCCCCCCCCCCC)COP(=O)([O-])OCC[N+](C)(C)C (stereo not drawn) [PLPC, palmitoyl-linoleate phosphatidyl choline], the “effect … (TER)” value [1, 4] is reported as “did not exhibit significant effects”.
With CCCCCCCCCCCCCCCC(=O)OC[C@H](COP(=O)([O-])OCC[N+](C)(C)C)OC(=O)CCCC=O [POVPC] the “effect … on TER” value [1] was “significantly and concentration-dependently decreased TER”.
With CC(C)(C)n1nc(-c2ccc(Cl)cc2)c2c(N)ncnc21 [PP-2] the “effect on OxPAPC-induced FAK phosphorylation” value (FAK) was “attenuated” and the “effect on OxPAPC-induced paxillin phosphorylation” value (paxillin) was “attenuated”.
For CCCCCCCCCCCCC/C=C/[C@@H](O)[C@@H](N)COP(=O)(O)O [S1P, sphingosine 1-phosphate], the “concentration giving maximal barrier protective effect” value ([1]; HPAEC monolayers) was 1 µM and the “effect … (TER)” value [1, 4] was “rapid concentration-dependent TER increase”.
For N#CC(=C(/N)Sc1ccccc1N)/C(C#N)=C(/N)Sc1ccccc1N [UO-126], the “effect on OxPAPC-induced Erk-1,2 cascade activation/phosphorylation” value (Erk-1,2) was “completely abolished”.
In the case of C[C@@H](N)[C@H]1CC[C@H](C(=O)Nc2ccncc2)CC1 [Y27632], the “effect of pretreatment on OxPAPC-induced TER increase” value [1] is reported as “not”.
In the case of CN(C)CCCn1cc(C2=C(c3c[nH]c4ccccc34)C(=O)NC2=O)c2ccccc21 [bisindolmaleimide I], the “effect on OxPAPC-induced PKC activity” value (PKC; in vitro kinase assay, preincubation 1 hour) is reported as “attenuated OxPAPC-induced PKC activation to a lesser extent”.
For O=c1c(-c2ccc(O)cc2)coc2cc(O)cc(O)c12 [genistein], the “effect on OxPAPC-induced Erk-1,2 cascade activation/phosphorylation” value (Erk-1,2) was “attenuated” and the “effect on OxPAPC-induced protein tyrosine phosphorylation” value [2] was “abolished”.
For lysoPC, the “effect … on TER” value [1] was “significantly and concentration-dependently decreased TER”.
In the case of platelet activating factor [PAF], the “barrier effect compared with OxPAPC” value [3] is given as “does not mimic barrier-protective OxPAPC effects”.
With thrombin the “effect … (TER)” value [1, 4] was “abrupt decrease in TER” and the “TER recovery time after maximal TER decline” value ([1]; thrombin 50 nM, with or without OxPAPC 20 μg/ml, five experiments) was 115 min.
